Like-named read-outs stand apart in the source and are kept apart here.
Tests used:
[1] = test system: breast cancer cell line MCF-7; test: IC50 on breast cancer cell line MCF-7; format: cell-based; details: Homo sapiens, MCF7, 72 h, read-out: MCF-7 (IC50, nM)
Method: From the activity evaluation data of the above-mentioned preliminary screen, it can be seen that the series of taxanes derivatives synthesized in the present invention have activity. Afterward, the compounds are investigated to examine their IC50 values on breast cancer cell line MCF-7. […] Experiments for each compound were independently repeated for three times and multiple holes were used in each experiment. The exposure time of drugs was 72 hours.

HL-60 leukemia = test: MTT proliferation inhibition, HL-60; format: cell-based; details: Homo sapiens, HL-60, read-out: Proliferation inhibition rate, HL60 Leukemia
Source text: (§1) 1. Cytotoxicity Assay Using Human Tumor Cell Lines
(§2) Paclitaxel was used as the positive drug.

K562 leukemia = test: MTT proliferation inhibition, K562; format: cell-based; details: Homo sapiens, K562, read-out: Proliferation inhibition rate, K562 Leukemia
Source text: as §1, §2

[2] = test system: NCI-H460 non-small cell lung cancer; test: MTT proliferation inhibition, NCI-H460; format: cell-based; details: Homo sapiens, NCI-H460, read-out: Proliferation inhibition rate, NCI-H460 Non-small cell lung cancer
Source text: as §1, §2

HT-29 colon cancer = test: MTT proliferation inhibition, HT-29; format: cell-based; details: Homo sapiens, HT-29, read-out: Proliferation inhibition rate, HT29 Colon cancer
Source text: as §1, §2

A375 melanoma = test: MTT proliferation inhibition, A375; format: cell-based; details: Homo sapiens, A-375, read-out: Proliferation inhibition rate, A375 Melanoma
Source text: as §1, §2

Hela cervical cancer = test: MTT proliferation inhibition, HeLa; format: cell-based; details: Homo sapiens, read-out: Proliferation inhibition rate, HeLa Uterin cancer
Source text: as §1, §2

[3] = test system: MDA-MB-436 breast cancer cells; test: MTT proliferation inhibition, MDA-MB-436; format: cell-based; details: Homo sapiens, MDA-MB-436, read-out: Proliferation inhibition rate, MDA-MB-436 Breast cancer
Source text: as §1, §2

A2780 ovarian cancer = test: MTT proliferation inhibition, A2780; format: cell-based; details: Homo sapiens, A2780, read-out: Proliferation inhibition rate, A2780 Ovarian cancer
Source text: as §1, §2

[4] = test system: MCF-7 breast cancer cells; test: MTT proliferation inhibition, MCF-7; format: cell-based; details: Homo sapiens, MCF7, read-out: Proliferation inhibition rate, MCF-7 Breast cancer
Source text: as §1, §2

[5] = test system: A549 non-small cell lung cancer; test: MTT proliferation inhibition, A549; format: cell-based; details: Homo sapiens, A549, read-out: Proliferation inhibition rate, A549 Non-small cell lung cancer
Source text: as §1, §2

HCT 116 colon cancer = test: MTT proliferation inhibition, HCT 116; format: cell-based; details: Homo sapiens, HCT-116, read-out: Proliferation inhibition rate, HCT 116 Colon cancer
Source text: as §1, §2

Du145 prostate cancer = test: MTT proliferation inhibition, Du145; format: cell-based; details: Homo sapiens, DU-145, read-out: Proliferation inhibition rate, DU145 Prostate cancer
Source text: as §1, §2

[6] = Caco-2 cell monolayer membrane transport assay (Papp and recovery); format: in vitro ADME; details: human, Caco-2, Caco-2, A-B
Source text: Caco-2 Cell Monolayer Membrane Transport Assay
(§3) Human-derived colorectal adenocarcinoma cell line Caco-2 cell monolayer model was used to study the bidirectional transport of the target compounds from the apical (AP) side to the basolateral (BL) side and from BL side to AP side. HPLC was used for quantitative analysis to calculate transport parameters, apparent permeability coefficient (Papp) and the efflux ratio.

LNCaP prostate cancer = test: MTT proliferation inhibition, LNCaP; format: cell-based; details: Homo sapiens, read-out: Proliferation inhibition rate, LNCaP Prostate cancer
Source text: as §1, §2

[7] = Caco-2 bidirectional transport, efflux ratio; details: human, Caco-2
Source text: as §3

BGC-823 gastric cancer = test: MTT proliferation inhibition, BGC-823; format: cell-based; details: Homo sapiens, BGC-823, read-out: Proliferation inhibition rate, BGC-823 Gastric cancer
Source text: as §1, §2

B16 melanoma = test: MTT proliferation inhibition, B16; format: cell-based; details: B16, read-out: Proliferation inhibition rate, B16 Melanoma
Source text: as §1, §2

LN-18 = test: MTT proliferation inhibition, LN-18; format: cell-based; details: Homo sapiens, LN-18, read-out: Proliferation inhibition rate, LN-18 Gastric canser
Source text: as §1, §2

[8] = Mean, read-out: Recovery rate in mass, Mean
[9] = Sample-01, read-out: Papp A-B, Sample-01
[10] = Sample-01, read-out: Recovery rate in mass, Sample-01
[11] = Sample-02, read-out: Papp A-B, Sample-02
[12] = Sample-02, read-out: Recovery rate in mass, Sample-02

SMILES: COC(=O)O[C@H]1C[C@H]2OC[C@@]2(OC(C)=O)[C@H]2[C@H](OC(=O)c3ccccc3)[C@]34OC(=O)O[C@H]3[C@H](OC(=O)[C@H](O)[C@@H](NC(=O)N(C)C)c3ccccc3)C(C)=C([C@@H](OC)C(=O)[C@]12C)C4(C)C [PCMI-19]
- IC50 [1]: 6.58 ± 0.02 nM
- inhibition at 1 µM (HL-60 leukemia): 96.9%
- inhibition at 1 µM (K562 leukemia): 92.7%
- inhibition at 1 µM [2]: 87.3%
- inhibition at 1 µM (HT-29 colon cancer): 87.2%
- inhibition at 1 µM (A375 melanoma): 95.2%
- inhibition at 1 µM (Hela cervical cancer): 99.6%
- inhibition at 1 µM [3]: 83.6%
- inhibition at 1 µM (A2780 ovarian cancer): 94.2%
- inhibition at 1 µM [4]: 89.7%
- inhibition at 1 µM [5]: 80.2%
- inhibition at 1 µM (HCT 116 colon cancer): 67.3%
- inhibition at 1 µM (Du145 prostate cancer): 90%
- Papp A→B ([6]; Mean, read-out: Papp A-B, Mean): 3.92 ×10⁻⁶ cm/s
- recovery [6, 8]: 74.5%
- Papp A→B [6, 9]: 3.78 ×10⁻⁶ cm/s
- recovery [6, 10]: 78.2%
- Papp A→B [6, 11]: 4.05 ×10⁻⁶ cm/s
- recovery [6, 12]: 70.7%
- inhibition at 1 µM (LNCaP prostate cancer): 87.2%
- Papp A→B [7]: 2.79 ×10⁻⁶ cm/s
- Papp B→A [7]: 21.3 ×10⁻⁶ cm/s
- efflux ratio [7]: 7.65
- inhibition at 1 µM (BGC-823 gastric cancer): 93.3%
- inhibition at 1 µM (B16 melanoma): 83.7%
- inhibition at 1 µM (LN-18): 93.9%

SMILES: COC(=O)O[C@H]1C[C@H]2OC[C@@]2(OC(C)=O)[C@H]2[C@H](OC(=O)c3ccccc3)[C@]34OC(=O)O[C@H]3[C@H](OC(=O)[C@H](O)[C@@H](NC(=O)OC(C)(C)C)c3ccccc3)C(C)=C([C@@H](OC)C(=O)[C@]12C)C4(C)C [PCMI-17]
- IC50 [1]: 3.84 ± 0.08 nM
- inhibition at 1 µM (HL-60 leukemia): 97.3%
- inhibition at 1 µM (K562 leukemia): 96.5%
- inhibition at 1 µM [2]: 89.2%
- inhibition at 1 µM (HT-29 colon cancer): 88.5%
- inhibition at 1 µM (A375 melanoma): 94.9%
- inhibition at 1 µM (Hela cervical cancer): 101%
- inhibition at 1 µM [3]: 85.1%
- inhibition at 1 µM (A2780 ovarian cancer): 96.6%
- inhibition at 1 µM [4]: 93.1%
- inhibition at 1 µM [5]: 80.3%
- inhibition at 1 µM (HCT 116 colon cancer): 69.6%
- inhibition at 1 µM (Du145 prostate cancer): 90.7%
- recovery [6, 8]: 88.7%
- Papp A→B [6, 9]: 4.7 ×10⁻⁶ cm/s
- recovery [6, 10]: 104%
- Papp A→B [6, 11]: 3.16 ×10⁻⁶ cm/s
- recovery [6, 12]: 73.9%
- inhibition at 1 µM (LNCaP prostate cancer): 86.7%
- Papp A→B [7]: 2.4 ×10⁻⁶ cm/s
- Papp B→A [7]: 5.74 ×10⁻⁶ cm/s
- efflux ratio [7]: 2.39
- inhibition at 1 µM (BGC-823 gastric cancer): 95.1%
- inhibition at 1 µM (B16 melanoma): 82.3%
- inhibition at 1 µM (LN-18): 95.9%

SMILES: CO[C@H]1C(=O)[C@]2(C)[C@@H](OC)C[C@H]3OC[C@@]3(OC(C)=O)[C@H]2[C@H](OC(=O)c2ccccc2)[C@]23OC(=O)O[C@H]2[C@H](OC(=O)[C@H](O)[C@@H](NC(=O)N(C)C)c2ccccc2)C(C)=C1C3(C)C [PCMI-03]
- IC50 [1]: 2.89 ± 0.1 nM
- inhibition at 1 µM (HL-60 leukemia): 95.7%
- inhibition at 1 µM (K562 leukemia): 93.6%
- inhibition at 1 µM [2]: 85.3%
- inhibition at 1 µM (HT-29 colon cancer): 88.5%
- inhibition at 1 µM (A375 melanoma): 88.6%
- inhibition at 1 µM (Hela cervical cancer): 99.4%
- inhibition at 1 µM [3]: 80.1%
- inhibition at 1 µM (A2780 ovarian cancer): 95.1%
- inhibition at 1 µM [4]: 95.3%
- inhibition at 1 µM [5]: 68.6%
- inhibition at 1 µM (HCT 116 colon cancer): 58.3%
- inhibition at 1 µM (Du145 prostate cancer): 85%
- Papp A→B ([6]; Mean, read-out: Papp A-B, Mean): 3.67 ×10⁻⁶ cm/s
- recovery [6, 8]: 61.7%
- Papp A→B [6, 9]: 3.45 ×10⁻⁶ cm/s
- recovery [6, 10]: 65.1%
- Papp A→B [6, 11]: 3.89 ×10⁻⁶ cm/s
- recovery [6, 12]: 58.2%
- inhibition at 1 µM (LNCaP prostate cancer): 82.6%
- Papp A→B [7]: 2.97 ×10⁻⁶ cm/s
- Papp B→A [7]: 28.6 ×10⁻⁶ cm/s
- efflux ratio [7]: 9.62
- inhibition at 1 µM (BGC-823 gastric cancer): 92.3%
- inhibition at 1 µM (B16 melanoma): 78.2%
- inhibition at 1 µM (LN-18): 95.3%

SMILES: CO[C@H]1C[C@H]2OC[C@@]2(OC(C)=O)[C@H]2[C@H](OC(=O)c3ccccc3)[C@]34OC(=O)O[C@H]3[C@H](OC(=O)[C@H](O)[C@@H](NC(=O)OC(C)(C)C)c3ccccn3)C(C)=C([C@@H](OC(=O)N(C)C)C(=O)[C@]12C)C4(C)C [PCMI-09]
- IC50 [1]: 14.31 ± 0.12 nM
- inhibition at 1 µM (HL-60 leukemia): 98.5%
- inhibition at 1 µM (K562 leukemia): 92.6%
- inhibition at 1 µM [2]: 85.8%
- inhibition at 1 µM (HT-29 colon cancer): 87.8%
- inhibition at 1 µM (A375 melanoma): 96.9%
- inhibition at 1 µM (Hela cervical cancer): 101%
- inhibition at 1 µM [3]: 81.3%
- inhibition at 1 µM (A2780 ovarian cancer): 95.6%
- inhibition at 1 µM [4]: 89.8%
- inhibition at 1 µM [5]: 75.8%
- inhibition at 1 µM (HCT 116 colon cancer): 65.5%
- inhibition at 1 µM (Du145 prostate cancer): 90.3%
- recovery [6, 8]: 76.5%
- Papp A→B [6, 9]: 5.78 ×10⁻⁶ cm/s
- recovery [6, 10]: 70.4%
- Papp A→B [6, 11]: 3.59 ×10⁻⁶ cm/s
- recovery [6, 12]: 82.6%
- inhibition at 1 µM (LNCaP prostate cancer): 86.2%
- Papp A→B [7]: 3.56 ×10⁻⁶ cm/s
- Papp B→A [7]: 29 ×10⁻⁶ cm/s
- efflux ratio [7]: 8.14
- inhibition at 1 µM (BGC-823 gastric cancer): 94.9%
- inhibition at 1 µM (B16 melanoma): 81.7%
- inhibition at 1 µM (LN-18): 95%

SMILES: CO[C@H]1C(=O)[C@]2(C)[C@@H](OC(=O)N(C)C)C[C@H]3OC[C@@]3(OC(C)=O)[C@H]2[C@H](OC(=O)c2ccccc2)[C@]23OC(=O)O[C@H]2[C@H](OC(=O)[C@H](O)[C@@H](NC(=O)OC(C)(C)C)c2ccccc2)C(C)=C1C3(C)C [PCMI-14]
- IC50 [1]: 15.4 ± 0.16 nM
- inhibition at 1 µM (HL-60 leukemia): 97.5%
- inhibition at 1 µM (K562 leukemia): 92.7%
- inhibition at 1 µM [2]: 86.9%
- inhibition at 1 µM (HT-29 colon cancer): 87.3%
- inhibition at 1 µM (A375 melanoma): 95.3%
- inhibition at 1 µM (Hela cervical cancer): 99.9%
- inhibition at 1 µM [3]: 80.2%
- inhibition at 1 µM (A2780 ovarian cancer): 94.2%
- inhibition at 1 µM [4]: 88.5%
- inhibition at 1 µM [5]: 76.2%
- inhibition at 1 µM (HCT 116 colon cancer): 65.5%
- inhibition at 1 µM (Du145 prostate cancer): 89.8%
- Papp A→B ([6]; Mean, read-out: Papp A-B, Mean): 3.04 ×10⁻⁶ cm/s
- recovery [6, 8]: 91.3%
- Papp A→B [6, 9]: 3.21 ×10⁻⁶ cm/s
- recovery [6, 10]: 95%
- Papp A→B [6, 11]: 2.87 ×10⁻⁶ cm/s
- recovery [6, 12]: 87.6%
- inhibition at 1 µM (LNCaP prostate cancer): 85.3%
- Papp A→B [7]: 1.98 ×10⁻⁶ cm/s
- Papp B→A [7]: 19 ×10⁻⁶ cm/s
- efflux ratio [7]: 9.58
- inhibition at 1 µM (BGC-823 gastric cancer): 95.8%
- inhibition at 1 µM (B16 melanoma): 80.3%
- inhibition at 1 µM (LN-18): 93.5%

Source: patent US9890175B2, “Taxane compound, and preparation method and use thereof” (JIANGSU TASLY DIYI PHARMACEUTICAL CO., LTD., priority 2013, dated 2018)
